This passage reports IC50 results from patent publication US11708367B2, “Compounds for the treatment of kinase-dependent disorders” (Exelixis, Inc., priority 2018, dated 2023).

For assay [1], the target named is T1, Met (Homo sapiens (Human), UniProt P08581). As to the kind of experiment: Human Met kinase assay (33P radiometric, KinaseProfiler). In kind it is biochemical. Particulars: 10 μM ATP, read-out: c-Met IC50. On the procedure: Kinase activity and compound inhibition were investigated using the ^33P-Phosphoryl transfer radiometric kinase assay, performed using the KinaseProfiler™ service of Eurofins Pharma Discovery Services UK Limited. Dose-response experiments were performed using nine compound concentrations in a 96-well microtiter plate. For each assay, all compounds were prepared to a 50× final assay concentration (50 μM) in 100% DMSO, then diluted in a half-log series, with the final top concentration at 1 μM. This working stock of the compound was added to the assay well as the first component in the reaction, followed by the remaining components as detailed in the following assay protocols below. The positive control wells (100% kinase activity) contain all components of the reaction including 2% DMSO (control for solvent effects), except the compound of interest. Blank wells contain all components of the reaction, with the reference inhibitor, staurosporine. This reference compound was used to abolish kinase activity and generated the 0% kinase activity base-line. IC50 values were calculated by nonlinear regression analysis using the sigmoidal dose-response (variable slope) curve fit on XLFit version 5.3 (ID Business Solutions).
Human Met (residues R974-S1390 with A1209G and V1290L, 3.4 nM) was incubated with 8 mM MOPS pH 7.0, 0.2 mM EDTA, 250 µM KKKGQEEEYVFIE (SEQ ID NO. 45), 1 mM sodium orthovanadate, 5 mM […], 10 mM magnesium acetate, and 10 μM [γ-33P-ATP]. The reaction was initiated by the addition of the Mg/ATP mix. After incubation for 40 minutes at room temperature, the reaction was stopped by the addition of phosphoric acid to a concentration of 0.5%. A reaction aliquot of 10 μL was then spotted onto a P30 filtermat and washed four times for 4 minutes in 0.425% phosphoric acid and once in methanol prior to drying and scintillation counting. Incorporated 33P was measured using the Wallac Microbeta scintillation counter (Perkin Elmer).

The target in assay [2] is T1, Met. The assay is described as follows: Met autophosphorylation ELISA in PC-3 cells. In kind it is cell-based. Particulars: cellular, HGF-stimulated, phospho-Met ELISA, read-out: c-Met IC50. A digest of the protocol:
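Serum-starved PC-3 cells treated 1 h with compound (8-point series, 0.3% DMSO), then stimulated 10 min with 100 ng/mL HGF. Phospho-Met (panTyr) quantified in lysates by sandwich ELISA; IC50 from 4-parameter logistic fit against DMSO and reference-inhibitor controls.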
Target sequence in this assay (P08581 25-1390): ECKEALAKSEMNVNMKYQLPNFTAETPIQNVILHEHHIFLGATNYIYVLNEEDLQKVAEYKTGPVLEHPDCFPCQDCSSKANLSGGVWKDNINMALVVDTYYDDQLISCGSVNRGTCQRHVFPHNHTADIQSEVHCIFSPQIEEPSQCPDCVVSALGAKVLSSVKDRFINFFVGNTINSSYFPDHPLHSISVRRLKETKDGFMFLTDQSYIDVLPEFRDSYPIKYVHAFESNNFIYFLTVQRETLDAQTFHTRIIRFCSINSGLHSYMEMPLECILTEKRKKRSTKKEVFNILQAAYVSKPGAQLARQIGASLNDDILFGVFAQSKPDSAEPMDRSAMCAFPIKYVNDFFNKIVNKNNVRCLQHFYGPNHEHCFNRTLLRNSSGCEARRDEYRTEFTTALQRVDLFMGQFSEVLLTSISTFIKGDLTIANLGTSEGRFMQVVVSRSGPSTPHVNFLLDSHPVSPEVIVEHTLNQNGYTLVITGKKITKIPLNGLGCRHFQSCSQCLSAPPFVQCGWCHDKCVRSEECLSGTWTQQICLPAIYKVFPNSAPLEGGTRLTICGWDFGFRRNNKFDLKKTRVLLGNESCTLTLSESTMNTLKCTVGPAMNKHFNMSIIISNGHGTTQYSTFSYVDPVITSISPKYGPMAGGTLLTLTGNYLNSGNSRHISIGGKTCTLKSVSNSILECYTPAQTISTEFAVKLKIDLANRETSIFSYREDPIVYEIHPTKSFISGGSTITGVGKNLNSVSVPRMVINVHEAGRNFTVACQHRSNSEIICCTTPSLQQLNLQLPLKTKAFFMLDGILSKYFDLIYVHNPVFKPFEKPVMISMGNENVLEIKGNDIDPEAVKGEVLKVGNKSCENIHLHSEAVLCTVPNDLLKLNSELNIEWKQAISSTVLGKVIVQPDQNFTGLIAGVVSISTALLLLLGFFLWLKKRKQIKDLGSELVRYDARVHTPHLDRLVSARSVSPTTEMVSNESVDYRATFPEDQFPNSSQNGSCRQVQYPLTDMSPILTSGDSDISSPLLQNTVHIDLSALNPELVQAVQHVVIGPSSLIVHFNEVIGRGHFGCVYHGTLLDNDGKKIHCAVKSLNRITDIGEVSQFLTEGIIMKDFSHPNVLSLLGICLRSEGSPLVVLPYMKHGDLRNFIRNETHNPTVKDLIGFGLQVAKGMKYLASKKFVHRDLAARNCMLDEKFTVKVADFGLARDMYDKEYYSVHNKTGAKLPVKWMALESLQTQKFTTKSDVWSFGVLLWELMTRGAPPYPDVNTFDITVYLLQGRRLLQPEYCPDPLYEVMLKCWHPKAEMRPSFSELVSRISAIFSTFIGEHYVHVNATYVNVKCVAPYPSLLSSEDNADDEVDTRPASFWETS
(In general: ELISA stands for enzyme-linked immunosorbent assay.)

For the next assay, the target named is Mer (Homo sapiens (Human), UniProt Q12866). As to the kind of experiment: Mer autophosphorylation ELISA in transient transfected 293A cells. In kind it is cell-based. Particulars: cellular, MERTK-transfected 293A cells, phospho-Mer ELISA. Here is the method: 293A cells (Thermo Fisher #R70507) were seeded at 1.5×10^6 cells/well onto 100 mm dish (Greiner #664169), in DMEM (Thermo Fisher #11995-040) containing 10% FBS (Thermo Fisher #26140-079), 1% MEM NEAA (Thermo Fisher #11140-050), 1% GlutaMax (Thermo Fisher #35050-061), and 1% Penicillin Streptomycin (Thermo Fisher #15140-122). 293A cells were incubated at 37° C., 5% CO2 for 24 h and then transfected with 6 μg MERTK DNA (Genecopoeia #EX-Z8208-M02) using TransIT LT1 transfection reagent (Mirus-Bio #MIR2305). After 24 h incubation, the transfected 293A cells were seeded at 1×10^5 cells/well onto 96-well plates (Corning #3904) in DMEM growth medium overnight. Test compounds were serially diluted to produce an 8-point dose curve in fresh serum-free medium to a final concentration of 0.3% DMSO (vehicle) and added to the cells and incubated for 1 h. Cells were then immediately lysed with 150 μL of cold IX lysis buffer [20 mM Tris, 137 mM sodium chloride, 2 mM EDTA, 10% glycerol, 1% NP-40 alternative, 1 mM activated sodium orthovanadate, 1 mM PefaBloc SC (Sigma-Aldrich #11429868001), protease/phosphatase inhibitor tablet (Thermo Fisher #A32959)]. Lysates were clarified by centrifugation and 50 μL/well added into the human phospho-Mer DuoSet IC ELISA (R&D Systems #DYC2579-2). Assay was performed according to manufacturer's instructions and sample phospho-Mer concentrations were extrapolated using human phospho-Mer control (R&D Systems #841793) as a standard. Positive control wells (100% activity) contained DMSO-treated cell lysates. Negative control wells (0% activity) contained reference inhibitor-treated cell lysates. IC50 values were calculated by nonlinear regression analysis using a 4-parameter logistic curve fit in ActivityBase XE (IDBS).
Mer, sequence (Q12866 21-999): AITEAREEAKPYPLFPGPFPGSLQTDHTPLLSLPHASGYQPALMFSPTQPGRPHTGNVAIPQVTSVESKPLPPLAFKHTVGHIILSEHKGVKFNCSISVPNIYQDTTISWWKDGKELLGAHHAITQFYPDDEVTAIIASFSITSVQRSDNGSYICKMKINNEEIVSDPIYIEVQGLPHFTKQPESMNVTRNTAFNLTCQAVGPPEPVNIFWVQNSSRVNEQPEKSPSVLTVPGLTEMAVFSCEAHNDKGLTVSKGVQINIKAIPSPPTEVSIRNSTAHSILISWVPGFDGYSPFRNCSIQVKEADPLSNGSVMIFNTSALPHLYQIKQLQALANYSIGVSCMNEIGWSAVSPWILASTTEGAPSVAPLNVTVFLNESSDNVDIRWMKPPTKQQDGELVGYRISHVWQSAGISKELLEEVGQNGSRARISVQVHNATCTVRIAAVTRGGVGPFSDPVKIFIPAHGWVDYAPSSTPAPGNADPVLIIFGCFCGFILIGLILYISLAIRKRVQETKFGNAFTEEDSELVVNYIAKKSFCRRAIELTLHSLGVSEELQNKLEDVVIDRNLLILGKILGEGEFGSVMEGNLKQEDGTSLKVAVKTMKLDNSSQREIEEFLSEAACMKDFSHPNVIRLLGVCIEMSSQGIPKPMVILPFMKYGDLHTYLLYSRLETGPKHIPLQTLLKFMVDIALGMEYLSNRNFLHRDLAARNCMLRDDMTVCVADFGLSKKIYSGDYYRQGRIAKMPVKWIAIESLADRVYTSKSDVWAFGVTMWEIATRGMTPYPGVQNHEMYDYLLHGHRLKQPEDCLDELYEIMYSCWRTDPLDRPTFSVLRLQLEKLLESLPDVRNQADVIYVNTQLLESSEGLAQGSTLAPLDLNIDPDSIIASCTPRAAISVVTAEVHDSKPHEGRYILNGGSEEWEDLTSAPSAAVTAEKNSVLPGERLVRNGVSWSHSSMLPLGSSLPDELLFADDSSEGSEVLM

pIC50: −log10 of the molar value. A value given as a limit tells only on which side of the number the result lay.

With `COc1cc2ncnc(Oc3ccc(NC(=O)C4(C(=O)Nc5ccc(F)cc5)CC4)cc3)c2nc1OC` [Compound 28, 1-N-[4-(6,7-dimethoxy-pyrido[3,2-d]pyrimidin-4-yl)oxyphenyl]-1-N′-(4-fluorophenyl)cyclo-propane-1,1-dicarboxamide], the pIC50 on Met [1] was 7.00 to 8.00; on Met [2] it was 6.52 to 7.00; on Mer, 7.00 to 8.00.

In the case of `COc1cc2ncnc(Oc3ccc(NC(=O)C4(C(=O)Nc5ccc(F)cc5)CC4)cc3Cl)c2nc1OC` [Compound 29, 1-N′-[3-chloro-4-(6,7-dimethoxypyrido[3,2-d]pyrimidin-4-yl)oxyphenyl]-1-N-(4-fluorophenyl)cyclo-propane-1,1-dicarboxamide], the negative-log IC50 (pIC50) on Met [1] was ≥ 8.00; on Met [2], 7.00 to 8.00.

`COc1cc2ncnc(Oc3ccc(NC(=O)C4(C(=O)Nc5ccc(F)cc5)CC4)cc3F)c2nc1OC` [Compound 30, 1-N′-[4-(6,7-dimethoxypyrido[3,2-d]pyrimidin-4-yl)oxy-3-fluorophenyl]-1-N-(4-fluorophenyl)cyclopropane-1,1-dicarboxamide]: the results for the pIC50 at Met [1], at Met [2] and on Mer were ≥ 8.00, 7.00 to 8.00 and ≥ 8.00, respectively.

As for `COc1nc2c(Oc3ccc(NC(=O)C4(C(=O)Nc5ccc(F)cc5)CC4)cc3)ncnc2cc1OCCCN1CCOCC1` [Compound 65, 1-N′-(4-fluorophenyl)-1-N-[4-[6-methoxy-7-(3-morpholin-4-ylpropoxy)pyrido[3,2-d]pyrimidin-4-yl]oxyphenyl]cyclopropane-1,1-dicarboxamide], the negative logarithm of the IC50 (pIC50) at Met [1], at Met [2] and at Mer was 7.00 to 8.00 each time.

As for `COc1nc2c(Oc3ccc(NC(=O)C4(C(=O)Nc5ccc(F)cc5)CC4)cc3Cl)ncnc2cc1OCCCN1CCOCC1` [Compound 66, 1-N′-[3-chloro-4-[6-methoxy-7-(3-morpholin-4-ylpropoxy)pyrido[3,2-d]pyrimidin-4-yl]oxyphenyl]-1-N-(4-fluorophenyl)cyclo-propane-1,1-dicarboxamide], the pIC50 is ≥ 8.00 at Met [1] and 7.00 to 8.00 at Met [2].

For the compound `COc1nc2c(Oc3ccc(NC(=O)C4(C(=O)Nc5ccc(F)cc5)CC4)cc3F)ncnc2cc1OCCCN1CCOCC1` [Compound 67, 1-N′-[3-fluoro-4-[6-methoxy-7-(3-morpholin-4-ylpropoxy)pyrido[3,2-d]pyrimidin-4-yl]oxyphenyl]-1-N-(4-fluorophenyl)cyclo-propane-1,1-dicarboxamide], the pIC50 at Met [1] was ≥ 8.00; on Met [2], 7.00 to 8.00; on Mer, ≥ 8.00.

In the case of `COc1cc2c(Oc3ccc(NC(=O)C4(C(=O)Nc5ccc(F)cc5)CC4)cc3)ncnc2cn1` [Compound 91, 1-N′-(4-fluorophenyl)-1-N-[4-(6-methoxypyrido[3,4-d]pyrimidin-4-yl)oxyphenyl]cyclopropane-1,1-dicarboxamide], the results for the negative logarithm of the IC50 (pIC50) on Met [1] and on Met [2] were 6.00 to 7.00 and < 6.52, respectively.

As to `COc1cc2ncnc(Oc3ccc(NC(=O)C4(C(=O)Nc5ccc(F)cc5)CC4)cc3)c2cn1` [Compound 104, 1-N′-(4-fluorophenyl)-1-N-[4-(7-methoxypyrido[4,3-d]pyrimidin-4-yl)oxy-phenyl]cyclopropane-1,1-dicarboxamide], the negative-log IC50 (pIC50) at Met [1] was 7.00 to 8.00; at Met [2], < 6.52.

Consider `COc1cc2ncnc(Oc3ccc(NC(=O)C4(C(=O)Nc5ccc(F)cc5)CC4)cc3)c2cc1C(=O)NC1COC1` [Compound 115, 1-N′-(4-fluorophenyl)-1-N-[4-[7-methoxy-6-(oxetan-3-ylcarbamoyl)quinazolin-4-yl]oxyphenyl]cyclopropane-1,1-dicarboxamide], for which the pIC50 on Met [1] is 7.00 to 8.00; at Met [2], 6.52 to 7.00.

Consider `COc1cc2ncnc(Oc3ccc(NC(=O)C4(C(=O)Nc5ccc(F)cc5)CC4)cc3)c2cc1C(=O)NC1CC1` [Compound 116, 1-N-[4-[6-(cyclopropylcarbamoyl)-7-methoxyquinazolin-4-yl]oxyphenyl]-1-N′-(4-fluorophenyl)cyclopropane-1,1-dicarboxamide], for which the negative logarithm of the IC50 (pIC50) at Met [1] is 7.00 to 8.00; on Met [2], 6.52 to 7.00.

In the case of `COc1cc2ncnc(Oc3ccc(NC(=O)C4(C(=O)Nc5ccc(F)cc5)CC4)cc3)c2cc1C(N)=O` [Compound 117, 1-N-[4-(6-carbamoyl-7-methoxyquinazolin-4-yl)oxyphenyl]-1-N′-(4-fluorophenyl)cyclopropane-1,1-dicarboxamide], the pIC50 is 7.00 to 8.00 at Met [1] and 6.52 to 7.00 on Met [2].

In the case of `COc1cc2ncnc(Oc3ccc(NC(=O)C4(C(=O)Nc5ccc(F)cc5)CC4)cc3)c2cc1C(=O)NCCN1CCCC1` [Compound 118, 1-N′-(4-fluorophenyl)-1-N-[4-[7-methoxy-6-(2-pyrrolidin-1-ylethyl-carbamoyl)quinazolin-4-yl]oxyphenyl]cyclopropane-1,1-dicarboxamide], the results for the pIC50 at Met [1], on Met [2] and on Mer were 7.00 to 8.00, 6.52 to 7.00 and 7.00 to 8.00, respectively.

Turning to `COc1cc2ncnc(Oc3ccc(NC(=O)C4(C(=O)Nc5ccc(F)cc5)CC4)cc3)c2cc1C(=O)NC[C@H]1CCCN1C(=O)OC(C)(C)C` [Compound 119, tert-butyl (2R)-2-[[[4-[4-[[1-[(4-fluoro-phenyl)carbamoyl]cyclo-propane-carbonyl]amino]phenoxy]-7-methoxyquinazoline-6-carbonyl]amino]methyl]pyr-rolidine-1-carboxylate], the pIC50 is 6.00 to 7.00 at Met [1] and < 6.52 at Met [2].

With `COc1cc2ncnc(Oc3ccc(NC(=O)C4(C(=O)Nc5ccc(F)cc5)CC4)cc3)c2cc1C(=O)NC[C@@H]1CCCN1C(=O)OC(C)(C)C` [Compound 120, tert-butyl (2S)-2-[[[4-[4-[[1-[(4-fluoro-phenyl)carbamoyl]cyclo-propane-carbonyl]amino]phenoxy]-7-methoxyquinazoline-6-carbonyl]amino]methyl]pyr-rolidine-1-carboxylate], the values for the negative-log IC50 (pIC50) at Met [1] and on Met [2] were 6.00 to 7.00 and < 6.52, respectively.

Regarding `COc1cc2ncnc(Oc3ccc(NC(=O)C4(C(=O)Nc5ccc(F)cc5)CC4)cc3)c2cc1C(=O)NC[C@H]1CCCN1` [Compound 121, 1-N′-(4-fluorophenyl)-1-N-[4-[7-methoxy-6-[[(2R)-pyrrolidin-2-yl]methyl-carbamoyl]quinazolin-4-yl]oxyphenyl]cyclopropane-1,1-dicarboxamide], the pIC50 at Met [1] is ≥ 8.00; at Met [2], 6.52 to 7.00.

In the case of `COc1cc2ncnc(Oc3ccc(NC(=O)C4(C(=O)Nc5ccc(F)cc5)CC4)cc3)c2cc1C(=O)NC[C@@H]1CCCN1` [Compound 122, 1-N′-(4-fluorophenyl)-1-N-[4-[7-methoxy-6-[[(2S)-pyrrolidin-2-yl]methyl-carbamoyl]quinazolin-4-yl]oxyphenyl]cyclopropane-1,1-dicarboxamide], the results for the negative-log IC50 (pIC50) at Met [1] and at Met [2] were 7.00 to 8.00 and 6.52 to 7.00, respectively.

`COc1cc2nccc(Oc3ccc(NC(=O)C4(C(=O)Nc5ccc(F)cc5)CC4)cc3Cl)c2nc1OC` [Compound 141, 1-N′-[3-chloro-4-[(6,7-dimethoxy-1,5-naphthyridin-4-yl)oxy]phenyl]-1-N-(4-fluorophenyl)cyclo-propane-1,1-dicarboxamide]: the negative logarithm of the IC50 (pIC50) on Met [1] and at Met [2] was ≥ 8.00 throughout.

What is called pIC50 is the IC50 on a negative log10 scale, so that one unit is a factor of ten.
